# Assay results reported in the supplement of paper PMC11208160.
# Assay: recombinant UMI read abundance after kanamycin selection (control-corrected) (log10(CPM+1)); higher = more efficient recombination; extreme values may be limits of the assay; sequences stand for … in AGTGCAGAGAAAATCGGCCAGTTTTCTCTGCCTGCAGTCCGCATGCCGTGGGACCCCTTGGGTTCTAACCTGTTGCCTAGATTTATGCAGCGGACTGCCTTTCTCCCAAAGTGATAAACCGG…AGGTTGGTTTCACT; site = the 11-nt donor
# Method: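 Pooled E. coli donor-specificity screen for the IS621 bridge recombinase. Each library member carries a reprogrammed 11-nt donor and a full-length LE bridge RNA expressed in cis from the natural promoter, with a paired donor-binding loop (8-nt LDG + 4-nt RDG) and a target-binding loop fixed to T5. It is co-electroporated with a T5 target plasmid; recombinase is induced with 0.07 mM IPTG and recombinants are selected on kanamycin. UMIs are counted as CPM, averaged over two biological replicates and corrected by the unselected control. Molecule = full bridge RNA written as DNA, built from the T5 scaffold: LDG = donor specificity nt 1-8, RDG = reverse complement of nt 8-11.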
# 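Also: IS621 bridge recombinase in Escherichia coli cells against a fixed T5 target plasmid.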
row,Sequence,recombinant UMI read abundance (log10)
1,ACCCAATCATGGACCGGTTTTCCCGGTAATCCGTATTTGGA (site ACCCAATCTTC),2.04
2,ACCCACACATGGACCGGTTTTCCCGGTAATCCGTATTTGTA (site ACCCACACTTA),1.92
3,ACCCACACATGGACCGGTTTTCCCGGTAATCCGTATTTGTA (site CCCCACACTTA),0.963
4,ACCCACACATGGACCGGTTTTCCCGGTAATCCGTATTTGTA (site GCCCACACTTA),0.0193
5,ACCCACACATGGACCGGTTTTCCCGGTAATCCGTATTTGTA (site TCCCACACTTA),0.408
6,ACCCATTCATGGACCGGTTTTCCCGGTAATCCGTATTTGGA (site ACCCATTCTTC),1.53
7,ACCCCAACATGGACCGGTTTTCCCGGTAATCCGTATTTGGT (site ACCCCAACTAC),0.756
8,ACCCCATCATGGACCGGTTTTCCCGGTAATCCGTATTTGAT (site ACCCCATCTAT),1.23
9,ACCCCGACATGGACCGGTTTTCCCGGTAATCCGTATTTGTG (site ACCCCGACTCA),0.965
10,ACCCCTACATGGACCGGTTTTCCCGGTAATCCGTATTTGAA (site ACCCCTACTTT),1.06
11,ACCCGCTCATGGACCGGTTTTCCCGGTAATCCGTATTTGCA (site ACCCGCTCTTG),2.9
12,ACCCTCACATGGACCGGTTTTCCCGGTAATCCGTATTTGTA (site ACCCTCACTTA),0.59
13,ACCCTTACATGGACCGGTTTTCCCGGTAATCCGTATTTGAG (site ACCCTTACTCT),1.66
14,ACCCTTTCATGGACCGGTTTTCCCGGTAATCCGTATTTGAC (site AACCTTTCTGT),0
15,ACCCTTTCATGGACCGGTTTTCCCGGTAATCCGTATTTGAC (site ACCCTTTCTGT),0
16,ACCCTTTCATGGACCGGTTTTCCCGGTAATCCGTATTTGAC (site AGCCTTTCTGT),0
17,ACCCTTTCATGGACCGGTTTTCCCGGTAATCCGTATTTGAC (site ATCCTTTCTGT),0
18,ACCGAGACATGGACCGGTTTTCCCGGTAATCCGTATTTGGG (site ACCAAGACTCC),0.109
19,ACCGAGACATGGACCGGTTTTCCCGGTAATCCGTATTTGGG (site ACCCAGACTCC),0.0111

row,Sequence,recombinant UMI read abundance (log10)
1,ACCGAGACATGGACCGGTTTTCCCGGTAATCCGTATTTGGG (site ACCGAGACTCC),0.621
2,ACCGAGACATGGACCGGTTTTCCCGGTAATCCGTATTTGGG (site ACCTAGACTCC),0
3,ACCGAGCCATGGACCGGTTTTCCCGGTAATCCGTATTTGAT (site ACCGAGCCTAT),1.13
4,ACCGATACATGGACCGGTTTTCCCGGTAATCCGTATTTGAA (site ACCGATACTTT),1.6
5,ACCGCTACATGGACCGGTTTTCCCGGTAATCCGTATTTGCC (site ACCGCTACTGG),1.75
6,ACCGGACCATGGACCGGTTTTCCCGGTAATCCGTATTTGGC (site ACCGGACCTGC),0
7,ACCGGTCCATGGACCGGTTTTCCCGGTAATCCGTATTTGCA (site ACCGGTCCTTG),0
8,ACCGGTCCATGGACCGGTTTTCCCGGTAATCCGTATTTGCA (site CCCGGTCCTTG),0
9,ACCGGTCCATGGACCGGTTTTCCCGGTAATCCGTATTTGCA (site GCCGGTCCTTG),0
10,ACCGGTCCATGGACCGGTTTTCCCGGTAATCCGTATTTGCA (site TCCGGTCCTTG),0
11,ACCGGTCCATGGACCGGTTTTCCCGGTAATCCGTATTTGTT (site ACCGGTCCTAA),0
12,ACCTACGCATGGACCGGTTTTCCCGGTAATCCGTATTTGAA (site ACCTACGCTTT),1.09
13,ACCTAGACATGGACCGGTTTTCCCGGTAATCCGTATTTGAG (site ACCTAGACTCA),0.226
14,ACCTAGACATGGACCGGTTTTCCCGGTAATCCGTATTTGAG (site ACCTAGACTCC),0.241
15,ACCTAGACATGGACCGGTTTTCCCGGTAATCCGTATTTGAG (site ACCTAGACTCG),0.352
16,ACCTAGACATGGACCGGTTTTCCCGGTAATCCGTATTTGAG (site ACCTAGACTCT),1.17
17,ACCTAGACATGGACCGGTTTTCCCGGTAATCCGTATTTGGT (site ACCTAGACTAC),0.0673
18,ACCTAGACATGGACCGGTTTTCCCGGTAATCCGTATTTGGT (site ACCTAGACTCC),0.0175
19,ACCTAGACATGGACCGGTTTTCCCGGTAATCCGTATTTGGT (site ACCTAGACTGC),0

row,Sequence,recombinant UMI read abundance (log10)
1,ACCTAGACATGGACCGGTTTTCCCGGTAATCCGTATTTGGT (site ACCTAGACTTC),0.0137
2,ACCTCAGCATGGACCGGTTTTCCCGGTAATCCGTATTTGGG (site AACTCAGCTCC),0.0172
3,ACCTCAGCATGGACCGGTTTTCCCGGTAATCCGTATTTGGG (site ACCTCAGCTCC),0.00849
4,ACCTCAGCATGGACCGGTTTTCCCGGTAATCCGTATTTGGG (site AGCTCAGCTCC),0.0171
5,ACCTCAGCATGGACCGGTTTTCCCGGTAATCCGTATTTGGG (site ATCTCAGCTCC),0.0291
6,ACCTCGTCATGGACCGGTTTTCCCGGTAATCCGTATTTGAA (site ACCTCGTCTTT),0.5
7,ACCTGAACATGGACCGGTTTTCCCGGTAATCCGTATTTGGC (site ACCTGAACTGC),1.39
8,ACCTTGCCATGGACCGGTTTTCCCGGTAATCCGTATTTGAA (site ACCTTGCCTTT),0.00655
9,ACGAAAACATGGACCGGTTTTCCCGGTAATCCGTATTTGCA (site ACGAAAACTTG),2.73
10,ACGAAAACATGGACCGGTTTTCCCGGTAATCCGTATTTGCA (site AGGAAGACTTG),0
11,ACGAGAACATGGACCGGTTTTCCCGGTAATCCGTATTTGAG (site ACAAGAACTCT),2.65
12,ACGAGAACATGGACCGGTTTTCCCGGTAATCCGTATTTGAG (site ACCAGAACTCT),0.752
13,ACGAGAACATGGACCGGTTTTCCCGGTAATCCGTATTTGAG (site ACGAGAACTCT),2.59
14,ACGAGAACATGGACCGGTTTTCCCGGTAATCCGTATTTGAG (site ACTAGAACTCT),0.873
15,ACGATTGCATGGACCGGTTTTCCCGGTAATCCGTATTTGGA (site ACGATTGCTTC),1.97
16,ACGCACACATGGACCGGTTTTCCCGGTAATCCGTATTTGAA (site ACGCACACTTT),2.08
17,ACGCATCCATGGACCGGTTTTCCCGGTAATCCGTATTTGAC (site ACACATCCTGT),1.31
18,ACGCATCCATGGACCGGTTTTCCCGGTAATCCGTATTTGAC (site ACCCATCCTGT),0
19,ACGCATCCATGGACCGGTTTTCCCGGTAATCCGTATTTGAC (site ACGCATCCTGT),1.8
